Assay results reported in PubChem BioAssay AID1919014 (Molecular Pharmacology Branch, DTP, NCI, 2023).
Values joined by “and” are separate entries in the source; they are usually repeats but may differ in a detail not shown here. Equal values may be shown once.

Test system: NCI-H1341 complex spheroids, percent test/control
Assay: Anticancer human tumor NCI-H1341 cell line growth inhibition [AhR];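 further: spheroids exposed to agents for seven days before readout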
Settings: for viability, T/C: stronger effect = lower value
In short: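 Agents were dosed in half-log steps down from roughly clinical Cmax, or from 10 microM where Cmax was unknown, alone and with AhR antagonists. Read-out: percent test/control growth of tumor spheroids containing HUVEC and MSC stromal cells.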

[1] = curve of first compound, second compound 0.1 µM
[2] = curve of first compound, second compound 0.316 µM
[3] = curve of first compound, second compound 1 µM
[4] = curve of first compound, second compound 3.16 µM
[5] = curve of first compound, second compound 10 µM
[6] = second compound 0.1 µM, first compound 0.0316 µM
[7] = second compound 0.1 µM, first compound 0.1 µM
[8] = second compound 0.1 µM, first compound 0.316 µM
[9] = second compound 0.1 µM, first compound 1 µM
[10] = second compound 0.1 µM, first compound 3.16 µM
[11] = second compound 0.1 µM, first compound 10 µM
[12] = second compound 0.316 µM, first compound 0.0316 µM
[13] = second compound 0.316 µM, first compound 0.1 µM
[14] = second compound 0.316 µM, first compound 0.316 µM
[15] = second compound 0.316 µM, first compound 1 µM
[16] = second compound 0.316 µM, first compound 3.16 µM
[17] = second compound 0.316 µM, first compound 10 µM
[18] = second compound 1 µM, first compound 0.0316 µM
[19] = second compound 1 µM, first compound 0.1 µM
[20] = second compound 1 µM, first compound 0.316 µM
[21] = second compound 1 µM, first compound 1 µM
[22] = second compound 1 µM, first compound 3.16 µM
[23] = second compound 1 µM, first compound 10 µM
[24] = second compound 3.16 µM, first compound 0.0316 µM
[25] = second compound 3.16 µM, first compound 0.1 µM
[26] = second compound 3.16 µM, first compound 0.316 µM
[27] = second compound 3.16 µM, first compound 1 µM
[28] = second compound 3.16 µM, first compound 3.16 µM
[29] = second compound 3.16 µM, first compound 10 µM
[30] = second compound 10 µM, first compound 0.0316 µM
[31] = second compound 10 µM, first compound 0.1 µM
[32] = second compound 10 µM, first compound 0.316 µM
[33] = second compound 10 µM, first compound 1 µM
[34] = second compound 10 µM, first compound 3.16 µM
[35] = second compound 10 µM, first compound 10 µM

For CCc1c2c(nc3ccc(O)cc13)-c1cc3c(c(=O)n1C2)COC(=O)[C@]3(O)CC + Cc1cncc(-c2nc(NCCc3c[nH]c4ccccc34)c3ncn(C(C)C)c3n2)c1, the IC50 [1] was 0.00713 µM, the IC50 [2] was 0.00357 µM and the IC50 [3] was under 0.000949 µM. It also gave an IC50 [4] of under 0.000949 µM, an IC50 [5] of under 0.000949 µM and a viability, T/C (second compound 0.1 µM, first compound 0.000949 µM) of 69.6%. It also gave a viability, T/C (second compound 0.1 µM, first compound 0.003 µM) of 65.8%, a viability, T/C (second compound 0.1 µM, first compound 0.00949 µM) of 41.9% and a viability, T/C (second compound 0.1 µM, first compound 0.03 µM) of 31.9%. For the same molecule, the viability, T/C (second compound 0.1 µM, first compound 0.0949 µM) was 25.2%, the viability, T/C (second compound 0.1 µM, first compound 0.3 µM) was 11.9% and the viability, T/C (second compound 0.316 µM, first compound 0.000949 µM) was 63.2%. The viability, T/C (second compound 0.316 µM, first compound 0.003 µM) was 55.8%, the viability, T/C (second compound 0.316 µM, first compound 0.00949 µM) was 33.8% and the viability, T/C (second compound 0.316 µM, first compound 0.03 µM) was 31.8%. It also gave a viability, T/C (second compound 0.316 µM, first compound 0.0949 µM) of 22.9%, a viability, T/C (second compound 0.316 µM, first compound 0.3 µM) of 10% and a viability, T/C (second compound 1 µM, first compound 0.000949 µM) of 46.1%. For the same molecule, the viability, T/C (second compound 1 µM, first compound 0.003 µM) was 45.6%, the viability, T/C (second compound 1 µM, first compound 0.00949 µM) was 36.4% and the viability, T/C (second compound 1 µM, first compound 0.03 µM) was 31.7%. It also gave a viability, T/C (second compound 1 µM, first compound 0.0949 µM) of 20.4%, a viability, T/C (second compound 1 µM, first compound 0.3 µM) of 8.02% and a viability, T/C (second compound 3.16 µM, first compound 0.000949 µM) of 46%. For the same molecule, the viability, T/C (second compound 3.16 µM, first compound 0.003 µM) was 38.2%, the viability, T/C (second compound 3.16 µM, first compound 0.00949 µM) was 34.6% and the viability, T/C (second compound 3.16 µM, first compound 0.03 µM) was 26.3%. The viability, T/C (second compound 3.16 µM, first compound 0.0949 µM) was 15.2%, the viability, T/C (second compound 3.16 µM, first compound 0.3 µM) was 5.83% and the viability, T/C (second compound 10 µM, first compound 0.000949 µM) was 15.2%. The viability, T/C (second compound 10 µM, first compound 0.003 µM) was 13%, the viability, T/C (second compound 10 µM, first compound 0.00949 µM) was 14.9% and the viability, T/C (second compound 10 µM, first compound 0.03 µM) was 8.23%. For the same molecule, the viability, T/C (second compound 10 µM, first compound 0.0949 µM) was 4.28% and the viability, T/C (second compound 10 µM, first compound 0.3 µM) was 1.78%.

Work on O=C(c1cc(Cc2n[nH]c(=O)c3ccccc23)ccc1F)N1CCN(C(=O)C2CC2)CC1 + CC(CO)NC(=O)c1cc(-c2ccc(Cl)cc2)nn(-c2cnn(C)c2)c1=O yielded an IC50 [1] of over 10 µM, an IC50 [2] of over 10 µM and an IC50 [3] of over 10 µM. For the same molecule, the IC50 [4] was over 10 µM, the IC50 [5] was over 10 µM and the viability, T/C [6] was 89.5%. For the same molecule, the viability, T/C [7] was 98.4%, the viability, T/C [8] was 93.7% and the viability, T/C [9] was 89.2%. The viability, T/C [10] was 82.4%, the viability, T/C [11] was 70.6% and the viability, T/C [12] was 96.1%. It also gave a viability, T/C [13] of 93.6%, a viability, T/C [14] of 91.6% and a viability, T/C [15] of 80.1%. For the same molecule, the viability, T/C [16] was 77.1%, the viability, T/C [17] was 72.7% and the viability, T/C [18] was 80.6%. The viability, T/C [19] was 105%, the viability, T/C [20] was 97.3% and the viability, T/C [21] was 81.5%. It also gave a viability, T/C [22] of 86.8%, a viability, T/C [23] of 74.6% and a viability, T/C [24] of 94.4%. It also gave a viability, T/C [25] of 90.6%, a viability, T/C [26] of 94.8% and a viability, T/C [27] of 75.9%. It also gave a viability, T/C [28] of 84.2%, a viability, T/C [29] of 60.7% and a viability, T/C [30] of 70.2%. For the same molecule, the viability, T/C [31] was 77.5%, the viability, T/C [32] was 85% and the viability, T/C [33] was 65.9%. The viability, T/C [34] was 71.9% and the viability, T/C [35] was 58.6%.

CCc1c2c(nc3ccc(O)cc13)-c1cc3c(c(=O)n1C2)COC(=O)[C@]3(O)CC was tested, and the viability, T/C (compound 0.000949 µM) was 89.8% and 92.6% and 89%, the viability, T/C (compound 0.003 µM) was 77% and 86.1% and 83.9% and the viability, T/C (compound 0.00949 µM) was 46.3% and 51.3% and 49.4%. The viability, T/C (compound 0.03 µM) was 34.4% and 45.9% and 36.6%, the viability, T/C (compound 0.0949 µM) was 27.4% and 34.4% and 28.5% and the viability, T/C (compound 0.3 µM) was 13.3% and 18.2% and 17%. For the same molecule, the IC50 (curve of compound) was 0.0105 µM and 0.0196 µM and 0.0123 µM.

COc1cc(C2c3cc4c(cc3C(OC3OC5COC(C)OC5C(O)C3O)C3COC(=O)C23)OCO4)cc(OC)c1O (configuration not stated) + Cc1ccccc1N=Nc1ccc(NC(=O)c2ccnn2C)c(C)c1 gave an IC50 [1] of 0.834 µM, an IC50 [2] of 10 µM and an IC50 [3] of 0.725 µM. The IC50 [4] was 0.255 µM, the IC50 [5] was under 0.0316 µM and the viability, T/C [6] was 92.2%. For the same molecule, the viability, T/C [7] was 82.4%, the viability, T/C [8] was 56% and the viability, T/C [9] was 46%. For the same molecule, the viability, T/C [10] was 46.3%, the viability, T/C [11] was 53.4% and the viability, T/C [12] was 71.3%. The viability, T/C [13] was 79%, the viability, T/C [14] was 57.1% and the viability, T/C [15] was 50.4%. It also gave a viability, T/C [16] of 54.6%, a viability, T/C [17] of 48.9% and a viability, T/C [18] of 90.1%. The viability, T/C [19] was 88.5%, the viability, T/C [20] was 58.2% and the viability, T/C [21] was 50.2%. It also gave a viability, T/C [22] of 44.7%, a viability, T/C [23] of 44.5% and a viability, T/C [24] of 66.6%. It also gave a viability, T/C [25] of 68.4%, a viability, T/C [26] of 43.3% and a viability, T/C [27] of 43.5%. For the same molecule, the viability, T/C [28] was 46.9%, the viability, T/C [29] was 50.2% and the viability, T/C [30] was 45.2%. The viability, T/C [31] was 46.6%, the viability, T/C [32] was 57.1% and the viability, T/C [33] was 44.6%. The viability, T/C [34] was 40.1% and the viability, T/C [35] was 49.9%.
